Values joined by “and” are separate entries in the source; they are usually repeats but may differ in a detail not shown here. Equal entries are not always repeated.
Experiments:
STAT3 dimerization = molecular target: T1, STAT3 dimerization (Homo sapiens, UniProt P40763); assay: STAT3 dimerization experiment (immunoprecipitation); assay type: cell-based; details: PANC-1 cells, 2 μM, with or without IL-6 stimulation
T1 construct: endogenous in cells; host or cells: PANC-1
From the text: (§1) Fig. 3 N4 interacts with the STAT3-SH2 domain and interferes with the STAT3-EGFR and STAT3-NF-κB interactions. […] C–E The binding between N4 and STAT3 was examined in (C) SPR and (D) MST experiments. His-STAT3^127-722 protein was purified and used to examine the affinity between STAT3 and N4. (E) The binding between N4 and STAT3^SH2 was confirmed in MST assays. STAT3-SH2 protein was purified and labeled. N4 was serially diluted and mixed with equal volumes of labeled STAT3^SH2 protein. The MST signal was measured, and the data were analyzed by MO analysis software. F, G The FLAG-tag and HA-tag STAT3 expression plasmid was transfected into 293 T cells, followed by the addition of the indicated concentrations of N4. After 24 h, cells were lysed, and immunoprecipitation experiments were performed as described in Materials and Methods. H N4 represses STAT3 dimerization in pancreatic cancer cells. I After a 24 h treatment with 2 μM N4, pancreatic cancer cells were stimulated with IL-6 for 30 min. Cell lysates were immunoprecipitated with STAT3 overnight. The precipitates were washed, suspended in non-reducing sample buffer, and boiled for 10 min. The indicated antibodies were used for western blot assays. […]
Co-IP was performed as previously described. […] After overnight incubation, the precipitates were washed and analyzed using western blotting.

PAN02-luc [1] = assay: Pancreatic cancer liver metastatic mouse model; assay type: in vivo, C57BL/6 mice; details: for mice alive: n = 5
Description: C57BL/6 mice were intrasplenically injected with luciferase-expressing PAN02 cells (PAN02-luc) in matrigel and tumor growth was assessed (A) and quantified (B) by bioluminescent imaging weekly. […] C After 4 weeks, mice were sacrificed and livers were imaged. D The body weight of C57BL/6 tumor-bearing mice were measured weekly.
C57BL/6, male, 8-week-old mice were obtained from the Animal Center of East China Normal University. All animal experimental protocols were approved by the Animal Investigation Committee of the Institute of Biomedical Sciences, East China Normal University. PAN02 cells that stably expressed luciferase (PAN02-luc) were embedded in Matrigel (BD Biosciences) and intrasplenically injected into mice. Tumors were allowed to grow for 1 week and treatment of the mice with either compound or control was started after grouping of the mice according to average bioluminescence. The IVIS Imaging System (Xenogen Corporation) was used to monitor pancreatic tumor growth and metastasis. Images and measurements of bioluminescent signals were acquired and analyzed using Living Image and Xenogen software.

PAN02-luc [2] = assay: Orthotopic pancreatic cancer tumor model; assay type: in vivo, C57BL/6 mice
Description: Fig. 7 N4 inhibits tumor growth in an orthotopic pancreatic cancer model. C57BL/6 mice were injected the tail of the pancreas with luciferase-expressing PAN02 cells (PAN02-luc) in matrigel and tumor growth was assessed (A) and quantified (B) by bioluminescent imaging weekly. Data represent the mean ± SD; *P < 0.05, **P < 0.01, ***P < 0.001, ****P < 0.0001, n.s. not significant by one-way ANOVA followed by multiple-comparison tests. (n = 5 mice per group) C After 4 weeks, mice were sacrificed and the pancreas were imaged. The tumor of pancreas were photographed (D) and weighted (E), scale bar, 0.5 cm.
Briefly, specimens of tumor tissue from xenograft models and orthotopic models were fixed with 4% paraformaldehyde solution at 4 °C overnight. […] Then, according to the manufacturer’s instructions (SK-4100; Vector laboratories), the avidin-biotin peroxidase complex was used, followed by colorimetric detection using DAB. Finally, hematoxylin was used to counterstain the sections and coverslips were mounted.
C57BL/6 mice, male, 4–6 week old were obtained from the Animal Center of East China Normal University. All animal experimental protocols were approved by the Animal Investigation Committee of the Institute of Biomedical Sciences, East China Normal University. PAN02 cells that stably expressed luciferase (PAN02-luc) were embedded in Matrigel (BD Biosciences) were injected with 5 × 10^5 in the tail of the pancreas. On the next day (day 0), the mice were subjected to bioluminescent imaging and divided into four groups according to the luciferase luminescence value. Mice were treated with intraperitoneal injection of indicated compound or drug. Tumor growth was analyzed once a week by an IVIS Imaging System (Xenogen Corporation, Alameda, CA) and end of study tumor weight was determined immediately postmortem. […] Images and measurements of bioluminescent signals were acquired and analyzed using Living Image and Xenogen software.

[3] = molecular target: T2, His-STAT3^127-722 protein (Homo sapiens, UniProt P40763); assay: Microscale thermophoresis (MST) assay, STAT3^127–722; assay type: binding; set-up: made in house
T2 sequence (P40763 127-722): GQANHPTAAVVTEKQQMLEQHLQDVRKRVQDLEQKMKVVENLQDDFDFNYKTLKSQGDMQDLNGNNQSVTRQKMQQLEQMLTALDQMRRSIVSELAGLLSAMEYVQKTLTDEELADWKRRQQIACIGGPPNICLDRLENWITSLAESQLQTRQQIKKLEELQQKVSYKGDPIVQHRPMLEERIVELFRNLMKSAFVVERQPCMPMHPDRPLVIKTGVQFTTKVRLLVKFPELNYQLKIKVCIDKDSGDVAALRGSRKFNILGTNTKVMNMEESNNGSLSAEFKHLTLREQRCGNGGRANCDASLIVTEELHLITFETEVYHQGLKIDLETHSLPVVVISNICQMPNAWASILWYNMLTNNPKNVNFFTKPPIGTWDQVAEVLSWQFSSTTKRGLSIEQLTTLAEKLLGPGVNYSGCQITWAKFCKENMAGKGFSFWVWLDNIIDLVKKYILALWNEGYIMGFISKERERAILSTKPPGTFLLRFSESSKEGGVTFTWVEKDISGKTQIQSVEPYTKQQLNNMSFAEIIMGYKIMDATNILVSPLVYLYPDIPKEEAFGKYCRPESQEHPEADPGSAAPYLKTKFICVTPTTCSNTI
From the text: as §1, with “overnight.” for “overnight. The precipitates were washed, suspended in non-reducing sample buffer, and boiled for 10 min. The indicated antibodies were used for western blot assays.”
The MST assay was previously described. Binding affinities of N4 with the purified His-STAT3-SH2 were measured using the Monolith NT.115 device (NanoTemper Technologies). […] The samples were then loaded into premium capillaries (NanoTemper Technologies) and measured using the Monolith NT.115 device. […]

[4] = molecular target: T2, His-STAT3^127-722 protein; assay: Fluorescence polarization (FP) assay, STAT3-phosphopeptide interaction; assay type: binding; set-up: We purified amino acids 127–722 of the STAT3 protein for this assay; made in house; details: N4 pre-incubated with STAT3 protein 1 h, then 10 nM labeled peptide 1 h; read-out: IC50, block of the STAT3-peptide interaction
Description: A Purified STAT3 protein was incubated with labeled phosphopeptide, 5-carboxyfluorescein-GpYLPQTV-NH2 for 1 h at 37 °C. FP signals were measured, and the data were analyzed using Graph Pad 7.0 software. […] C Different concentrations of N4 were pre-incubated with recombined STAT3 protein for 1 h, then 10 nM of labeled peptide was added for 1 h. The IC50 was calculated using Graph Pad 7.0.
The labeled phosphopeptide: 5-carboxyfluorescein-GpYLPQTV-NH2 (where pY represents phospho-Tyr) was used as the STAT3 binding probe. To evaluate the effect of compounds in inhibiting STAT3-peptide interaction, serial dilutions of the STAT3 competitors were prepared. The diluted compounds were added to the reaction mixture in 100 μl of FP buffer (50 mM HEPES, pH 7.5, 150 mM NaCl, 0.1% NP-40, and 1 mM dithiothreitol) containing 500 nM his-STAT3^127–722 protein for pre-incubation at 37 °C for 1 h. Then, 10 nM of the labeled peptide was added and incubated for 1 h. After incubation, FP was measured on a Cytation^TM 5 cell imaging multi-mode Reader (BioTek) using excitation and emission wavelengths of 480 nm and 535 nm, respectively. Each reaction was repeated two or three times. Binding or competitive parameters were calculated from a nonlinear regression using GraphPad Prism 7.0.

T1 sequence (P40763 2-770 limits assumed): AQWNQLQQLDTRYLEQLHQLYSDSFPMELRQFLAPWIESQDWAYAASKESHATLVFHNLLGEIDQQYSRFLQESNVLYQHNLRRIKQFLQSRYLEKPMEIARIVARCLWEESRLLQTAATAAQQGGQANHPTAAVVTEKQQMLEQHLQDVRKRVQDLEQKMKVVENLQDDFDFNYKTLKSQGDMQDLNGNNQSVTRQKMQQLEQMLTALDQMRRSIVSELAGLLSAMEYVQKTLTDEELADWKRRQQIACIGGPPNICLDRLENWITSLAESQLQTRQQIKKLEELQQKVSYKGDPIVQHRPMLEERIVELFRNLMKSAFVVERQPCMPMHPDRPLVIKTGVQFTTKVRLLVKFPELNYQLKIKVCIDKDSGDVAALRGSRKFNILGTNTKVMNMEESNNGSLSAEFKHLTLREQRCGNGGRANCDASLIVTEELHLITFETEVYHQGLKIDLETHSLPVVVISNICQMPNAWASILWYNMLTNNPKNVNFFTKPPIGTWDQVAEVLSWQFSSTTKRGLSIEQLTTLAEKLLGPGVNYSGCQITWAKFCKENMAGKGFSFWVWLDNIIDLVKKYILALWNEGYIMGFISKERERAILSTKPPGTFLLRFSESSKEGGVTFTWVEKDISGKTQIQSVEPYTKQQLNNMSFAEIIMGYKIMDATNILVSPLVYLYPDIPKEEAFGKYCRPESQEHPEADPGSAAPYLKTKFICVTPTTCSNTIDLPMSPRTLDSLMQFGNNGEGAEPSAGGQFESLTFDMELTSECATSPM

## COc1cc2c(cc1C(=O)Nc1cccc3cccnc13)CCC1C(C)(C)C(=O)C(C#N)=C[C@]21C (some centres unmarked) [N4]
STAT3 dimerization
  STAT3 dimerization: efficiently decreased
PAN02-luc [1]; measured weekly
  mice bodyweight: no obvious effect
PAN02-luc [1]; week 4, 10 mg/kg/d
  tumor metastasis suppressed compared with the control group: 63.25%
PAN02-luc [1]; week 4, 20 mg/kg/d
  tumor metastasis suppressed compared with the control group: 81.16%
PAN02-luc [1]; week 10, 10 mg/kg/d
  mice alive: 40%
PAN02-luc [1]; week 10, 20 mg/kg/d
  mice alive: 80%
PAN02-luc [2]; IHC of tumor tissue
  expression of stromal cells marker α-SMA in vivo: drastically suppressed
  expression of vimentin in vivo: significantly suppressed
  number of TAM (F4/80+ macrophages): significantly decreased
PAN02-luc [2]; week 4, 10 mg/kg/d
  tumor volume suppressed compared with the control group: 97.34%
PAN02-luc [2]; week 4, 20 mg/kg/d
  tumor volume suppressed compared with the control group: 98.88%
[3]; STAT3^127-722, value printed in figure
  Kd: 2020 nM
[3]; STAT3^127–722
  Kd: 2020 nM
[4]
  IC50: 570 nM and 568 nM

From article PMC7906907, “Targeting STAT3 by a small molecule suppresses pancreatic cancer progression” (Oncogene, 2021)
